Source: paper PMC6952103, “Biochemical characterization of Ty1 retrotransposon protease” (PLoS ONE, 2020)
Where “and” joins values, the source holds several entries; their conditions need not be identical. Equal entries are not always repeated. Entries after “also recorded” stand apart in the source; their conditions may differ. Where two headings read alike, the source gives them in different places.

How the values were obtained:
XMRV PR = conditions: cited from earlier work
Excerpt: (§1) Despite the fact that out of the tested inhibitors only acet ...

Ty1 PR-His6 [1] = biological target: T1, Ty1 PR-His6 (Saccharomyces cerevisiae, UniProt Q07793); test: Inhibition study of Ty1 PR-His6; assay type: biochemical; conditions: Ty1 PR-His6 (400–1600 nM), VPTIN*NVHTS 0.44 mM, inhibitor ≥100 nM final, DMSO, peptide buffer A, 2 h at 30°C
T1 construct: made in house; host or cells: E. coli BL21(DE3), pET11a Gag-PR-His6 (gift of J.F. Lawler); soluble fraction, Ni-chelate chromatography, autoprocessed
T1 sequence (Q07793 402-582 limits assumed): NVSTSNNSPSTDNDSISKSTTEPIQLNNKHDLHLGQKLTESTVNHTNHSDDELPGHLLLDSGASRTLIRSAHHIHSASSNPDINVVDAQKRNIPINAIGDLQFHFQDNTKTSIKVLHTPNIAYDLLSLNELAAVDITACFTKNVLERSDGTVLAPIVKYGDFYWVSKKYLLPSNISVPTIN
Experimental: Ty1 PR-His6 activity was measured in the presence of various HIV-1 protease inhibitors. […] To study effect of inhibitors on proteolytic activity, reaction mixtures contained 5 μl purified Ty1 PR-His6 (400–1600 nM), 10 μl peptide buffer A, 4.8 μl oligopeptide substrate (VPTIN*NVHTS, 0.44 mM), and 0.2 μl inhibitor. For screening, inhibitors were dissolved in DMSO to have ≥100 nM final concentration. DMSO solution containing no inhibitor was used as control. Reaction mixtures were incubated for 2 h at 30°C.

Ty1 PR = biological target: T2, Ty1 PR (Saccharomyces cerevisiae, UniProt Q07793); test: Oligopeptide-based proteolytic assay (HPLC), untagged Ty1 PR; assay type: biochemical; conditions: peptide buffer A pH 7.0, 30 °C; for cleavage (in words): Ty1 PR, oligopeptide substrate 2 mg/ml stock, 2 up to 5 h
T2 construct: the protease domain of Ty1 is unusually long, consisting of 181 residues; made in house; host or cells: E. coli BL21(DE3), pET11a
T2 sequence (Q07793 402-582 limits assumed): T1 sequence (Q07793 402-582 limits assumed)
Experimental: (§2) The oligopeptides used in the proteolytic assays (Table 1A) were synthesized as previously described. Reaction mixtures contained 10 μl peptide buffer A (20 mM PIPES, 100 mM NaCl, 0.5% Nonidet P-40, 10% glycerol, 2 mM dithiotreitol (DTT), pH 7.0), 5 μl purified Ty1 PR-His6 (processed from Ty1 Gag-PR-His6) or Ty1 PR, and 5 μl oligopeptide substrate (2 mg/ml) dissolved in water. Reaction mixtures were incubated for the different experiments from 2 up to 5 h at 30°C. The reactions were stopped by the addition of 180 μl 1% trifluoroacetic acid (TFA).
(§3) The products were separated by an HPLC-based method using a 0–100% water-acetonitrile gradient in the presence of TFA on Merck Hitachi instrument. For enzyme kinetic measurements, VPTIN*NVHTS oligopeptide substrate (representing Ty1 PR/IN cleavage site) was used at 0.2–1.2 mM; Ty1 PR (400–1600 nM) was incubated with the substrate at 30 °C for 2 h, whereas Ty1 PR-His6 (500–1500 nM) was incubated for 2.5 h. Kinetic parameters (shown in Table 1A) were determined by fitting the data obtained at less than 20% substrate hydrolysis to the Michaelis-Menten equation using GraphPad Prism version 5.00 for Windows (GraphPad Software, La Jolla California USA, www.graphpad.com). Statistical significances were determined by GraphPad QuickCalcs (https://www.graphpad.com/quickcalcs/ttest2).
(§4) For investigation of optimal conditions for enzyme folding, Ty1 PR was dialyzed against various buffers and buffer combinations that have been shown previously to be suitable for retroviral protease activity. In peptide-based assays, both protease and oligopeptide solutions were added to the buffer, and the reaction mixtures were incubated at 30°C, and stopped by the addition TFA. The mixtures were then injected onto a reversed-phase chromatography column in order to separate substrates and cleavage products, the substrate turnover was determined by integration of peak areas.

HFV PR = conditions: ref [40], cited from earlier work; for kcat/Km: buffer optimized for that protease
Excerpt: Similarly low catalytic activities were also observed previously for HFV and the Gag-encoded Avian myeloblastosis virus (AMV) proteases. Both the untagged, and the His6-tagged (self-processed) PRs cleaved th ...

Ty1 PR-His6 [2] = biological target: T1, Ty1 PR-His6; test: Oligopeptide-based proteolytic assay (HPLC), Ty1 PR-His6; assay type: biochemical; conditions: for cleavage (in words): Ty1 PR-His6, oligopeptide substrate 2 mg/ml stock, 2 up to 5 h
Experimental: as §2, §3, §4

HIV-1 PR = conditions: cited from earlier work
Excerpt: For instance, the optimal pH of HFV protease is 6.6–6.8 [40] while that of HIV-1 PR is between 4 and 6 [41]. […] Higher sensitivity to urea implies lower dimer stability for Ty1 protease, the possible structural background of this difference is discussed later in the In silico structural analysi ... || (+ 1 further places)

[3] = biological target: Copia transposon protease; conditions: ref [17]; cited from earlier work
Excerpt: as §1

[4] = test system: Copia transposon protease; conditions: ref [17], cited from earlier work
Experimental: The dependence of enzyme activity on ionic strength was studied, and highest activities were measured at 1.5–2 M NaCl concentration (Fig 4A). […] For instance, the optimal pH of HFV protease is 6.6–6.8 [40] while that of HIV-1 PR is between 4 and 6 [41].

[5] = peptide buffer A pH 7.0, 30 °C, HPLC
[6] = Ty1 PR (400–1600 nM), substrate 0.2–1.2 mM, 2 h, SD (n≥2)
[7] = Ty1 PR-His6 (500–1500 nM), substrate 0.2–1.2 mM, peptide buffer A pH 7.0, 30 °C, 2.5 h, HPLC, SD (n≥2)

In the case of `CC(C)CN(C[C@@H](O)[C@H](Cc1ccccc1)NC(=O)O[C@H]1CO[C@H]2OCC[C@H]21)S(=O)(=O)c1ccc(N)cc1` [darunavir], the “inhibition (in words)” value (XMRV PR; ref [45]) is given as “able to inhibit” and the “inhibition of proteolytic activity (in words)” value (Ty1 PR-His6 [1]) is given as “unable to inhibit”.

In the case of `CC(C)(C)NC(=O)[C@@H]1C[C@@H]2CCCC[C@@H]2CN1C[C@@H](O)[C@H](Cc1ccccc1)NC(=O)[C@H](CC(N)=O)NC(=O)c1ccc2ccccc2n1` [saquinavir], the “inhibition of proteolytic activity (in words)” value (Ty1 PR-His6 [1]) is reported as “unable to inhibit”.

For `CC(C)CN(C[C@@H](O)[C@H](Cc1ccccc1)NC(=O)O[C@H]1CCOC1)S(=O)(=O)c1ccc(N)cc1` [amprenavir], the “inhibition (in words)” value (XMRV PR; ref [45]) is listed as “able to inhibit” and the “inhibition of proteolytic activity (in words)” value (Ty1 PR-His6 [1]) is listed as “unable to inhibit”.

For “TARAH*NVSTS [synthetic oligopeptide substrate representing the Gag/PR cleavage site of Ty1]”, the “cleavage (in words)” value (Ty1 PR) is given as “no cleavage was observed”, the “hydrolysis (in words)” value (HFV PR) is given as “not hydrolyzed” and the “cleavage (in words)” value (Ty1 PR-His6 [2]; [5]) is given as “no cleavage was observed”.

For “IHLIA*AVKAV [synthetic oligopeptide substrate representing the IN/RT cleavage site of Ty1]”, the “cleavage (in words)” value (Ty1 PR) is listed as “no cleavage was observed”, the kcat/Km (HFV PR) is listed as 2 ± 0.4 M⁻¹ s⁻¹ and the Km (HFV PR) is listed as 1000 ± 160 µM. For the same molecule, the kcat (HFV PR) was 0.0020 ± 0.0002 s⁻¹ and the “cleavage (in words)” value (Ty1 PR-His6 [2]; [5]) was “no cleavage was observed”.

In the case of `Cc1cccc(C)c1OCC(=O)N[C@@H](Cc1ccccc1)[C@@H](O)C[C@H](Cc1ccccc1)NC(=O)[C@H](C(C)C)N1CCCNC1=O` [lopinavir], the “inhibition (in words)” value (XMRV PR; ref [45]) is given as “able to inhibit” and the “inhibition of proteolytic activity (in words)” value (Ty1 PR-His6 [1]) is given as “unable to inhibit”.

In the case of `Cc1c(O)cccc1C(=O)N[C@@H](CSc1ccccc1)[C@H](O)CN1C[C@H]2CCCC[C@H]2C[C@H]1C(=O)NC(C)(C)C` [nelfinavir], the “inhibition of proteolytic activity (in words)” value (Ty1 PR-His6 [1]) is reported as “unable to inhibit”.

In the case of “HIV-1 PR: human immunodeficiency virus type 1 protease”, the “activity at 37°C (in words)” value (HIV-1 PR; HIV-1 PR, 37°C, ref [41]) is listed as “highly active” and the “UC50 (urea)” value (HIV-1 PR; HIV-1 PR, ref [29]) is listed as 1.47 M.

For `CCC[C@@]1(CCc2ccccc2)CC(O)=C([C@H](CC)c2cccc(NS(=O)(=O)c3ccc(C(F)(F)F)cn3)c2)C(=O)O1` [tipranavir], the “inhibition (in words)” value (XMRV PR; ref [45]) is given as “able to inhibit” and the “inhibition of proteolytic activity (in words)” value (Ty1 PR-His6 [1]) is given as “unable to inhibit”.

For `COC(=O)N[C@H](C(=O)N[C@@H](Cc1ccccc1)[C@@H](O)CN(Cc1ccc(-c2ccccn2)cc1)NC(=O)[C@@H](NC(=O)OC)C(C)(C)C)C(C)(C)C` [atazanavir], the “inhibition (in words)” value (XMRV PR; ref [45]) is given as “able to inhibit” and the “inhibition of proteolytic activity (in words)” value (Ty1 PR-His6 [1]) is given as “unable to inhibit”.

In the case of pepstatin A, the “inhibition (in words)” value (XMRV PR; ref [29]) is given as “weak inhibitors”, the Ki [3] is given as 15 nM and the “inhibition of proteolytic activity (in words)” value (Ty1 PR-His6 [1]) is given as “no inhibitory potential; also recorded: unable for the inhibition”.

In the case of “VPTIN*NVHTS [synthetic oligopeptide substrate representing the PR/IN cleavage site of Ty1]”, the Km (Ty1 PR; [6]) is reported as 210 ± 70 µM, the kcat (Ty1 PR; [6]) is reported as 0.006 ± 0.001 s⁻¹ and the kcat/Km (Ty1 PR; [6]) is reported as 28 ± 10.5 M⁻¹ s⁻¹. The “cleavage (in words)” value (Ty1 PR) was “cleaved”, the kcat/Km (HFV PR) was 7 M⁻¹ s⁻¹ and 7 ± 2.4 M⁻¹ s⁻¹ and the Km (HFV PR) was 30 ± 10 µM. For the same molecule, the kcat (HFV PR) was 0.0002 ± 0.00003 s⁻¹, the Km (Ty1 PR-His6 [2]; [7]) was 250 ± 90 µM and the kcat (Ty1 PR-His6 [2]; [7]) was 0.009 ± 0.001 s⁻¹. For the same molecule, the kcat/Km (Ty1 PR-His6 [2]; [7]) was 36 ± 13.2 M⁻¹ s⁻¹, the “cleavage (in words)” value (Ty1 PR-His6 [2]; [5]) was “cleaved” and the “difference of specificity constants between untagged Ty1 PR and Ty1 PR-His6 (in words)” value (Ty1 PR-His6 [2]; Ty1 PR-His6 versus untagged Ty1 PR) was “not significant statistically”.

In the case of T26S mutant HIV-1 protease, the “specific activity compared to wild-type (in words)” value (HIV-1 PR; T26S mutant, ref [49]) is listed as “lower specific activity”.

In the case of `O=C1N(Cc2ccc(CO)cc2)[C@H](Cc2ccccc2)[C@H](O)[C@@H](O)[C@@H](Cc2ccccc2)N1Cc1ccc(CO)cc1` [DMP-323], the “inhibition (in words)” value (XMRV PR; ref [45]) is given as “able to inhibit” and the “inhibition of proteolytic activity (in words)” value (Ty1 PR-His6 [1]) is given as “unable to inhibit”.

B1: Copia transposon protease: Copia transposon protease of D. melanogaster (protein, UniProt P04146 271-1409, looked up)
Copia protease: IAFMVKEVNNTSVMDNCGFVLDSGASDHLINDESLYTDSVEVVPPLKIAVAKQGEFIYATKRGIVRLRNDHEITLEDVLFCKEAAGNLMSVKRLQEAGMSIEFDKSGVTISKNGLMVVKNSGMLNNVPVINFQAYSINAKHKNNFRLWHERFGHISDGKLLEIKRKNMFSDQSLLNNLELSCEICEPCLNGKQARLPFKQLKDKTHIKRPLFVVHSDVCGPITPVTLDDKNYFVIFVDQFTHYCVTYLIKYKSDVFSMFQDFVAKSEAHFNLKVVYLYIDNGREYLSNEMRQFCVKKGISYHLTVPHTPQLNGVSERMIRTITEKARTMVSGAKLDKSFWGEAVLTATYLINRIPSRALVDSSKTPYEMWHNKKPYLKHLRVFGATVYVHIKNKQGKFDDKSFKSIFVGYEPNGFKLWDAVNEKFIVARDVVVDETNMVNSRAVKFETVFLKDSKESENKNFPNDSRKIIQTEFPNESKECDNIQFLKDSKESENKNFPNDSRKIIQTEFPNESKECDNIQFLKDSKESNKYFLNESKKRKRDDHLNESKGSGNPNESRESETAEHLKEIGIDNPTKNDGIEIINRRSERLKTKPQISYNEEDNSLNKVVLNAHTIFNDVPNSFDEIQYRDDKSSWEEAINTELNAHKINNTWTITKRPENKNIVDSRWVFSVKYNELGNPIRYKARLVARGFTQKYQIDYEETFAPVARISSFRFILSLVIQYNLKVHQMDVKTAFLNGTLKEEIYMRLPQGISCNSDNVCKLNKAIYGLKQAARCWFEVFEQALKECEFVNSSVDRCIYILDKGNINENIYVLLYVDDVVIATGDMTRMNNFKRYLMEKFRMTDLNEIKHFIGIRIEMQEDKIYLSQSAYVKKILSKFNMENCNAVSTPLPSKINYELLNSDEDCNTPCRSLIGCLMYIMLCTRPDLTTAVNILSRYSSKNNSELWQNLKRVLRYLKGTIDMKLIFKKNLAFENKIIGYVDSDWAGSEIDRKSTTGYLFKMFDFNLICWNTKRQNSVAASSTEAEYMALFEAVREALWLKFLLTSINIKLENPIKIYEDNQGCISIANNPSCHKRAKHIDIKYHFAREQVQNNVICLEYIPTENQLADIFTKPLPAARFVELRDKLGLLQDDQSNAE
modifications: Copia protease
notes: Copia transposon protease of D. melanogaster
In the case of B1, the relative activity ([4]; 20–70°C temperature range) is listed as ≥ 50%, the “NaCl concentration of highest activity” value ([4]; Copia transposon protease) is listed as 2 M and the “pH at which synthetic substrate is cleaved most efficiently” value ([4]; Copia transposon protease) is listed as 4.0. For the same molecule, the “temperature of highest activity” value ([4]; Copia transposon protease) was 70 °C.
